Laboratory results from patent publication EP4722212A1, “NOVEL COMPOUND FOR INHIBITING PROTEIN KINASES AND PHARMACEUTICAL COMPOSITION COMPRISING SAME” (Magicbullettherapeutics Co., Ltd., priority 2023, dated 2024).
Where two headings read alike, the source gives them in different places.

What was measured:
Test in all cases: Kinase panel
Assay type in all cases: biochemical
ALK = ALK (Homo sapiens, UniProt Q9UM73); conditions: read-out: residual enzyme activity
Experimental: (§1) To measure the inhibitory activity of protein kinases against the compounds of the present invention, a biochemical assay was performed using a full kinase panel. The inhibitory efficacy of kinases was measured when Example compounds 8 and 51 were treated at a single concentration of 1 µM, and residual enzyme activity values were calculated. Kinases were identified when the calculated residual enzyme activity values were 40% or less, i.e., inhibited by 60% or more.

C-MER = C-MER (Homo sapiens, UniProt Q12866); conditions: read-out: residual enzyme activity
Experimental: as §1

CAMK2B = CAMK2B (Homo sapiens, UniProt Q13554); conditions: read-out: residual enzyme activity
Experimental: as §1

CAMK2D = CAMK2D (Homo sapiens, UniProt Q13557); conditions: read-out: residual enzyme activity
Experimental: as §1

CAMKK2 = CAMKK2 (Homo sapiens, UniProt Q96RR4); conditions: CAMKK2, 1 µM; read-out: residual enzyme activity
CAMKK2, sequence (Q96RR4 whole entry, species assumed): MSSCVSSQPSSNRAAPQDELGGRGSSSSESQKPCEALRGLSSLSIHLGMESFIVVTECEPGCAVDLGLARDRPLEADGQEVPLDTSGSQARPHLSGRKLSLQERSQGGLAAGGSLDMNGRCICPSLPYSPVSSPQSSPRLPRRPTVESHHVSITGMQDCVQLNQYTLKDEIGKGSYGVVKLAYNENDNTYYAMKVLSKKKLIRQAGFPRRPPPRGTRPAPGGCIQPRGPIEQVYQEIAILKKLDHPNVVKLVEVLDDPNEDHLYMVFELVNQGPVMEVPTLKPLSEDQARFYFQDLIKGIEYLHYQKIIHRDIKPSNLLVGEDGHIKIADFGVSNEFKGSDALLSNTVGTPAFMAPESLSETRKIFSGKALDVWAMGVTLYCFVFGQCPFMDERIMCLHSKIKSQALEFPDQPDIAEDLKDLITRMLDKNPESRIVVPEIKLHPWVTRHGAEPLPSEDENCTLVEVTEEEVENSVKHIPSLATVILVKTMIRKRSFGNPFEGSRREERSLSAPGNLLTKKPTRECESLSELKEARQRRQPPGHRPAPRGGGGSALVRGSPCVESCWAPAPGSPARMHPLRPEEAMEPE
Experimental: as §1

CDK3/CYCLIN E = CDK3/CYCLIN E (Homo sapiens, UniProt Q00526); conditions: read-out: residual enzyme activity
Experimental: as §1

CDK3/CYCLIN E2 = CDK3/CYCLIN E2 (Homo sapiens, UniProt Q00526); conditions: CDK3/cyclin E2, 1 µM; read-out: residual enzyme activity
Experimental: as §1

CDK9/CYCLIN K = CDK9/CYCLIN K (Homo sapiens, UniProt P50750); conditions: read-out: residual enzyme activity
Experimental: as §1

CLK2 = CLK2 (Homo sapiens, UniProt P49760); conditions: CLK2, 1 µM; read-out: residual enzyme activity
Experimental: as §1

CSK = CSK (Homo sapiens, UniProt P41240); conditions: read-out: residual enzyme activity
CSK, sequence (P41240 whole entry, species assumed): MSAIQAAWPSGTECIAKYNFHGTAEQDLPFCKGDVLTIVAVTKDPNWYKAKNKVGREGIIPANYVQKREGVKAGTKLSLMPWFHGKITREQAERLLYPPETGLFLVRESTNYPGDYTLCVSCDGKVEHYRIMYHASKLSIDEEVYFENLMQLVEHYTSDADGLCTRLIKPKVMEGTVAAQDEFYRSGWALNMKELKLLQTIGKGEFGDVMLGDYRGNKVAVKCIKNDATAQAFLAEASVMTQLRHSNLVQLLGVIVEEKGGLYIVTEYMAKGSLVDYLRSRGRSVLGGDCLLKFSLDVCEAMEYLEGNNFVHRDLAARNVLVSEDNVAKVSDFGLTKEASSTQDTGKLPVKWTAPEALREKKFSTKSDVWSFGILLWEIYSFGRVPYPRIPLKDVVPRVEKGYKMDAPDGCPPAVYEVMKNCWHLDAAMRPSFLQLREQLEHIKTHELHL
Experimental: as §1

EPHA1 = EPHA1 (Homo sapiens, UniProt P21709); conditions: EPHA1, 1 µM; read-out: residual enzyme activity
EPHA1, sequence (P21709 26-976, species assumed): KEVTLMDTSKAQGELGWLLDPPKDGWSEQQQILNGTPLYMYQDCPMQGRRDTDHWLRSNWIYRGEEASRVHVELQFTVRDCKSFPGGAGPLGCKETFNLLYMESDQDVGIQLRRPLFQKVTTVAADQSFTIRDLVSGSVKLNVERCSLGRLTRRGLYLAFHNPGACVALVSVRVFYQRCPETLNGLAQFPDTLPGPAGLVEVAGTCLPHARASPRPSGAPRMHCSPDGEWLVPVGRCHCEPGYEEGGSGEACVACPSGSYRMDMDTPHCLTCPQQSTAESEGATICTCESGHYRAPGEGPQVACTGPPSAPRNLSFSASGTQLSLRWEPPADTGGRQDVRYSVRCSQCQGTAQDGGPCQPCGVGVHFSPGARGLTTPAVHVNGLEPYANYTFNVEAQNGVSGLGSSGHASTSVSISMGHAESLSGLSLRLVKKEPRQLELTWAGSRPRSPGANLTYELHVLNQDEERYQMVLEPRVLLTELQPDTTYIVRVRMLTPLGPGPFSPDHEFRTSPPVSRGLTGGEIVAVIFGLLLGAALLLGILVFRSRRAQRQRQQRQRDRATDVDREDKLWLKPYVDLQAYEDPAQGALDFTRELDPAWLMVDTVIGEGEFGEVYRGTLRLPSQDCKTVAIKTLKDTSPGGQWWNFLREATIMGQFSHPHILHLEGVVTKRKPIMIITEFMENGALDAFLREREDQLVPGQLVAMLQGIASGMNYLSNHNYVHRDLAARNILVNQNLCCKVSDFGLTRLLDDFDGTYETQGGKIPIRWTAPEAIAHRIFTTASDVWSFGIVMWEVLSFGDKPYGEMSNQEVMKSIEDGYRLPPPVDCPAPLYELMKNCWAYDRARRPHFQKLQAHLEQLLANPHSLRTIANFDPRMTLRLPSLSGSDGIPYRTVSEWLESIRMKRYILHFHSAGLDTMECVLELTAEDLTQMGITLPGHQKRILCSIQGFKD
Experimental: as §1

EPHB4 = EPHB4 (Homo sapiens, UniProt P54760); conditions: EPHB4, 1 µM; read-out: residual enzyme activity
Experimental: as §1

ERK5/MAPK7 = ERK5/MAPK7 (Homo sapiens, UniProt Q13164); conditions: ERK5/MAPK7, 1 µM; read-out: residual enzyme activity
Experimental: as §1

GRK1 = GRK1 (Homo sapiens, UniProt Q15835); conditions: GRK1, 1 µM; read-out: residual enzyme activity
Experimental: as §1

GRK6 = GRK6 (Homo sapiens, UniProt P43250); conditions: GRK6, 1 µM; read-out: residual enzyme activity
Experimental: as §1

GSK3A = GSK3A (Homo sapiens, UniProt P49840); conditions: read-out: residual enzyme activity
Experimental: as §1

HASPIN = HASPIN (Homo sapiens, UniProt Q8TF76); conditions: read-out: residual enzyme activity
Experimental: as §1

JNK2 = JNK2 (Homo sapiens, UniProt P45984); conditions: read-out: residual enzyme activity
JNK2, sequence (P45984 whole entry, species assumed): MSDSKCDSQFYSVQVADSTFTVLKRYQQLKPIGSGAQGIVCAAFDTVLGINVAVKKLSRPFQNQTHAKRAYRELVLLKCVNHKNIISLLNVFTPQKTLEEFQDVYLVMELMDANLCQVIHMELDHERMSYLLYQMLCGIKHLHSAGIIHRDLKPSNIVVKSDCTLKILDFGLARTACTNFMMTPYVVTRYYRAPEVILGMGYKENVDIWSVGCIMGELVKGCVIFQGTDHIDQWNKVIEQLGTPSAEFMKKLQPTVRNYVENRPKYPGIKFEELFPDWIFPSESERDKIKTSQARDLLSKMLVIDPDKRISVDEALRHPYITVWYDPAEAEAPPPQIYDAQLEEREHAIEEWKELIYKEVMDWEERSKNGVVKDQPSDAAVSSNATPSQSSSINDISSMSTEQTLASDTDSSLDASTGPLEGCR
Experimental: as §1

LATS2 = LATS2 (Homo sapiens, UniProt Q9NRM7); conditions: LATS2, 1 µM; read-out: residual enzyme activity
LATS2, sequence (Q9NRM7 whole entry, species assumed): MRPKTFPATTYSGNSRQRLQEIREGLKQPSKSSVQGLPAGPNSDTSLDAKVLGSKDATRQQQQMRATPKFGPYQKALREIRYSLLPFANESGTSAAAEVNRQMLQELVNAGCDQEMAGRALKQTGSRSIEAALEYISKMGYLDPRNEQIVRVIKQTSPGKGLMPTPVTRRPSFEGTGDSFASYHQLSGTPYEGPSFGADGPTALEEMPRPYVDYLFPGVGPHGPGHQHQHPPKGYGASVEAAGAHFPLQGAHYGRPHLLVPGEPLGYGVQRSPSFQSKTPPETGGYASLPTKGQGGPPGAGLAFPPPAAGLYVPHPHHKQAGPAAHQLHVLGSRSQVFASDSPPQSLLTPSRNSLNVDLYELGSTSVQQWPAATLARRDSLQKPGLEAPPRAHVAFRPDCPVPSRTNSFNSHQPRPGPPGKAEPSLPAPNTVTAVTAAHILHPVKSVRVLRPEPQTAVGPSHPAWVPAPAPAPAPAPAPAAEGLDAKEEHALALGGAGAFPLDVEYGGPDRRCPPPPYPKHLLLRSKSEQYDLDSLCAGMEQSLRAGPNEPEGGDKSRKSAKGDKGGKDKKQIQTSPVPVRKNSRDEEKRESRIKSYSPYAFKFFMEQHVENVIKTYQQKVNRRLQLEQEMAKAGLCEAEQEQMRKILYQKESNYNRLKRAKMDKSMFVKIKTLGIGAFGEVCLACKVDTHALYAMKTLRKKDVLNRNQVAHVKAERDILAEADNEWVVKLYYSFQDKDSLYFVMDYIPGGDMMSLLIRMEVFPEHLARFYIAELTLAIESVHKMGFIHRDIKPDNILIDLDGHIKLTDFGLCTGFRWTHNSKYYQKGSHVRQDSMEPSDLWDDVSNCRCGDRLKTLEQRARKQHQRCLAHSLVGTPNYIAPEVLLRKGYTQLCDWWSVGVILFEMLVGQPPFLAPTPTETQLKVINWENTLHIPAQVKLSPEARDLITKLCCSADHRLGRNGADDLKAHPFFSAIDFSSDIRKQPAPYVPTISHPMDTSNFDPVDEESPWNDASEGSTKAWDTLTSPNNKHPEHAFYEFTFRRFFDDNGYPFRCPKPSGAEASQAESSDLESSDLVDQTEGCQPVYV
Experimental: as §1

LYN = LYN (Homo sapiens, UniProt P07948); conditions: read-out: residual enzyme activity
Experimental: as §1

MLK4 = MLK4 (Homo sapiens, UniProt Q5TCX8); conditions: MLK4, 1 µM; read-out: residual enzyme activity
Experimental: as §1

MRCKA/CDC42BPA = MRCKA/CDC42BPA (Homo sapiens, UniProt Q5VT25); conditions: read-out: residual enzyme activity
Experimental: as §1

NEK1 = NEK1 (Homo sapiens, UniProt Q96PY6); conditions: NEK1, 1 µM; read-out: residual enzyme activity
Experimental: as §1

P70S6K/RPS6KB1 = P70S6K/RPS6KB1 (Homo sapiens, UniProt P23443); conditions: read-out: residual enzyme activity
Experimental: as §1

PAK6 = PAK6 (Homo sapiens, UniProt Q9NQU5); conditions: PAK6, 1 µM; read-out: residual enzyme activity
Experimental: as §1

PKCB2 = PKCB2 (Homo sapiens, UniProt P05771); conditions: PKCb2, 1 µM; read-out: residual enzyme activity
Experimental: as §1

RSK4 = RSK4 (Homo sapiens, UniProt Q9UK32); conditions: RSK4, 1 µM; read-out: residual enzyme activity
Experimental: as §1

SLK/STK2 = SLK/STK2 (Homo sapiens, UniProt Q9H2G2); conditions: SLK/STK2, 1 µM; read-out: residual enzyme activity
Experimental: as §1

SRPK1 = SRPK1 (Homo sapiens, UniProt Q96SB4); conditions: SRPK1, 1 µM; read-out: residual enzyme activity
SRPK1, sequence (Q96SB4 whole entry, species assumed): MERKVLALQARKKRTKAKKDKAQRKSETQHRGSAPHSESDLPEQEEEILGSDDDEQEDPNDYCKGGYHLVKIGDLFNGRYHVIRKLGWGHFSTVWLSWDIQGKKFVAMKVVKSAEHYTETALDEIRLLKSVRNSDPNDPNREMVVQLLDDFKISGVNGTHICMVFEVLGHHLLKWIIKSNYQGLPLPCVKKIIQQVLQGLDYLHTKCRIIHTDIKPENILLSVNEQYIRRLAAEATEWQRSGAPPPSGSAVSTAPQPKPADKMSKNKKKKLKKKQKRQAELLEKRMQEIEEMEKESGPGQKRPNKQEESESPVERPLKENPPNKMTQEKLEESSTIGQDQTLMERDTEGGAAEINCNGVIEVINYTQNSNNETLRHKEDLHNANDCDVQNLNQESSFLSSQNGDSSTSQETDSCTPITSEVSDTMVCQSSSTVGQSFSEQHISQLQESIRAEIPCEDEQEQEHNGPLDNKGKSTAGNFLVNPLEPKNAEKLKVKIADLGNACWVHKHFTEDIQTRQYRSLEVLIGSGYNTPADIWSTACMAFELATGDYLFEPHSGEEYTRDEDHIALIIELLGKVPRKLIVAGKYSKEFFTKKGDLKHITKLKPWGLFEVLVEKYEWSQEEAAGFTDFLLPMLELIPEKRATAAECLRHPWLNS
Experimental: as §1

STK33 = STK33 (Homo sapiens, UniProt Q9BYT3); conditions: STK33, 1 µM; read-out: residual enzyme activity
Experimental: as §1

TAOK2/TAO1 = TAOK2/TAO1 (Homo sapiens, UniProt Q9UL54); conditions: TAOK2/TAO1, 1 µM; read-out: residual enzyme activity
Experimental: as §1

TLK1 = TLK1 (Homo sapiens, UniProt Q9UKI8); conditions: TLK1, 1 µM; read-out: residual enzyme activity
TLK1, sequence (Q9UKI8 whole entry, species assumed): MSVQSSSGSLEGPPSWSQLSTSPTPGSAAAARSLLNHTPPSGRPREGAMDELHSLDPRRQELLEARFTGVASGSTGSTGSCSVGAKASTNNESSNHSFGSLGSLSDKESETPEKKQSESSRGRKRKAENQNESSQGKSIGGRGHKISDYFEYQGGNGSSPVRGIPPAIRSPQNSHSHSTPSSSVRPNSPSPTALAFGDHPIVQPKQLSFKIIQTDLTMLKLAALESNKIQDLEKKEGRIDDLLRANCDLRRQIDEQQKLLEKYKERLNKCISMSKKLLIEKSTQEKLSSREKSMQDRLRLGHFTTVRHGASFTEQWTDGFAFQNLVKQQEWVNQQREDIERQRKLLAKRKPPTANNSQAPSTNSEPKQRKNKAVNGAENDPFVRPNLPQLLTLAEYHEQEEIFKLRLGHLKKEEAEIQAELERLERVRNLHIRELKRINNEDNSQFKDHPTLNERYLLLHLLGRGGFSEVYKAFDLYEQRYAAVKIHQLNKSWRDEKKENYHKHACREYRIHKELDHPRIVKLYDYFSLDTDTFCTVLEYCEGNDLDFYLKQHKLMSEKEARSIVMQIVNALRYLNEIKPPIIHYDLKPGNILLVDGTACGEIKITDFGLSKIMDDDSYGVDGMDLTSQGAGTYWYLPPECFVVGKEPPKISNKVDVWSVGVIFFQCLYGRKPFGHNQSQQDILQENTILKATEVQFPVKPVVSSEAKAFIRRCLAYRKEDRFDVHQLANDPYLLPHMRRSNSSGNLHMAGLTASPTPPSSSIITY
Experimental: as §1

TSSK2 = TSSK2 (Homo sapiens, UniProt Q96PF2); conditions: TSSK2, 1 µM; read-out: residual enzyme activity
Experimental: as §1

Cc1cn(-c2cc(C(=O)Nc3ccc(C)c(N4Cc5cnc(NC6CC6)nc5C5(CC5)C4=O)c3)cc(C(F)(F)F)c2)cn1 [Compound 8, N-(3-(2'-(cyclopropylamino)-7'-oxo-5'H-spiro[cyclopropane-1,8'-pyrido[4,3-d]pyrimidine]-6'(7'H)-yl)-4-methylphenyl)-3-(4-methyl-1H-imidazol-1-yl)-5-(trifluoromethyl)benzamide]
remaining activity at 1 µM (ALK): > 40% | remaining activity at 1 µM (C-MER; C-MER): > 40% | remaining activity at 1 µM (CAMK2B; CAMK2B): > 40% | remaining activity at 1 µM (CAMK2D; CAMK2D): > 40% | remaining activity at 1 µM (CAMKK2): > 40% | remaining activity at 1 µM (CDK3/CYCLIN E): > 40% | remaining activity at 1 µM (CDK3/CYCLIN E2): > 40% | remaining activity at 1 µM (CDK9/CYCLIN K): > 40% | remaining activity at 1 µM (CLK2): > 40% | remaining activity at 1 µM (CSK): ≤ 40% | remaining activity at 1 µM (EPHA1): ≤ 40% | remaining activity at 1 µM (EPHB4): ≤ 40% | remaining activity at 1 µM (ERK5/MAPK7): > 40% | remaining activity at 1 µM (GRK1): > 40% | remaining activity at 1 µM (GRK6): > 40% | remaining activity at 1 µM (GSK3A; GSK3A): > 40% | remaining activity at 1 µM (HASPIN): > 40% | remaining activity at 1 µM (JNK2; JNK2, 1 µM): > 40% | remaining activity at 1 µM (LATS2): ≤ 40% | remaining activity at 1 µM (LYN): ≤ 40% | remaining activity at 1 µM (MLK4): > 40% | remaining activity at 1 µM (MRCKA/CDC42BPA): > 40% | remaining activity at 1 µM (NEK1): > 40% | remaining activity at 1 µM (P70S6K/RPS6KB1; P70S6K/RPS6KB1, 1 µM): > 40% | remaining activity at 1 µM (PAK6): > 40% | remaining activity at 1 µM (PKCB2): > 40% | remaining activity at 1 µM (RSK4): > 40% | remaining activity at 1 µM (SLK/STK2): ≤ 40% | remaining activity at 1 µM (SRPK1): > 40% | remaining activity at 1 µM (STK33): > 40% | remaining activity at 1 µM (TAOK2/TAO1): ≤ 40% | remaining activity at 1 µM (TLK1): > 40% | remaining activity at 1 µM (TSSK2): > 40%

Cc1ccc(Nc2ncc3c(n2)C2(CC2)C(=O)N(c2cc(NC(=O)c4cccc(C(F)(F)F)c4)ccc2C)C3)cn1 [Compound 51, N-(4-methyl-3-(2'-((6-methylpyridin-3-yl)amino)-7'-oxo-5'H-spiro[cyclopropane-1,8'-pyrido[4,3-d]pyrimidine]-6'(7'H)-yl)phenyl)-3-(trifluoromethyl)benzamide]
remaining activity at 1 µM (ALK): > 40% | remaining activity at 1 µM (C-MER; c-MER): > 40% | remaining activity at 1 µM (CAMK2B; CAMK2b): > 40% | remaining activity at 1 µM (CAMK2D; CAMK2d): > 40% | remaining activity at 1 µM (CAMKK2): > 40% | remaining activity at 1 µM (CDK3/CYCLIN E): > 40% | remaining activity at 1 µM (CDK3/CYCLIN E2): > 40% | remaining activity at 1 µM (CDK9/CYCLIN K): > 40% | remaining activity at 1 µM (CLK2): > 40% | remaining activity at 1 µM (CSK): ≤ 40% | remaining activity at 1 µM (EPHA1): ≤ 40% | remaining activity at 1 µM (EPHB4): ≤ 40% | remaining activity at 1 µM (ERK5/MAPK7): > 40% | remaining activity at 1 µM (GRK1): > 40% | remaining activity at 1 µM (GRK6): > 40% | remaining activity at 1 µM (GSK3A; GSK3a): > 40% | remaining activity at 1 µM (HASPIN): > 40% | remaining activity at 1 µM (JNK2; INK2, 1 µM): ≤ 40% | remaining activity at 1 µM (LATS2): ≤ 40% | remaining activity at 1 µM (LYN): ≤ 40% | remaining activity at 1 µM (MLK4): > 40% | remaining activity at 1 µM (MRCKA/CDC42BPA): > 40% | remaining activity at 1 µM (NEK1): > 40% | remaining activity at 1 µM (P70S6K/RPS6KB1; p70S6K/RPS6KB1, 1 µM): ≤ 40% | remaining activity at 1 µM (PAK6): > 40% | remaining activity at 1 µM (PKCB2): > 40% | remaining activity at 1 µM (RSK4): > 40% | remaining activity at 1 µM (SLK/STK2): ≤ 40% | remaining activity at 1 µM (SRPK1): > 40% | remaining activity at 1 µM (STK33): > 40% | remaining activity at 1 µM (TAOK2/TAO1): ≤ 40% | remaining activity at 1 µM (TLK1): > 40% | remaining activity at 1 µM (TSSK2): > 40%
